These results are taken from the NIST ThermoML archive (doi:10.1016/j.jct.2019.04.017).

The conditions of data set [1]: 96 kPa, Liquid; for viscosity: Cone and plate viscometry; for electrical conductivity: Frequency=0.001 MHz, Alternating current cell with electrodes.
The nature of data set [2]: xn = mol fraction of the nth substance listed. Conditions: 96 kPa, Liquid, Cone and plate viscometry, x2 = 0.

The viscosity is the internal friction of a fluid under shear.

Each structure is given as a SMILES string. Numbers after ± are expanded uncertainties.

With `C1CCC2=NCCCN2CC1` [1,8-diaza-7-bicyclo[5.4.0]undecene], the viscosity was 15.35 ± 1 mPa·s in data set [1] (288.1 K); 10.32 ± 0.67 mPa·s in data set [1] (298.1 K); 8.17 ± 0.53 mPa·s in data set [1] (308.1 K); 6.08 ± 0.39 mPa·s in data set [1] (318.1 K); 4.91 ± 0.32 mPa·s in data set [1] (328.1 K). For the same compound, the electrical conductivity in data set [1] (288.1 K) was 0.000222 ± 8.8e-06 S/m; in data set [1] (293.1 K), 0.000241 ± 9.5e-06 S/m; in data set [1] (298.1 K) it was 0.000267 ± 1.1e-05 S/m; in data set [1] (303.1 K) it was 0.000297 ± 1.2e-05 S/m; in data set [1] (308.1 K) it was 0.00032 ± 1.3e-05 S/m; in data set [1] (313.1 K), 0.000356 ± 1.4e-05 S/m. The electrical conductivity in data set [1] (318.1 K) was found to be 0.000382 ± 1.5e-05 S/m; in data set [1] (323.1 K) it was 0.000423 ± 1.7e-05 S/m; in data set [1] (328.1 K) it was 0.000444 ± 1.8e-05 S/m.

In the case of `OCC(O)CO` [glycerol], the viscosity in data set [1] (288.1 K) worked out at 2180 ± 380 mPa·s; in data set [1] (298.1 K) it was 933.8 ± 110 mPa·s; in data set [1] (308.1 K), 420.3 ± 39 mPa·s; in data set [1] (318.1 K), 195.6 ± 15 mPa·s; in data set [1] (328.1 K), 104.3 ± 7.3 mPa·s.

As to `OCC(O)CO` [glycerol] + C1CCC2=NCCCN2CC1, the viscosity worked out at 2180 ± 380 mPa·s in data set [2] (288.1 K); 933.8 ± 110 mPa·s in data set [2] (298.1 K); 420.3 ± 39 mPa·s in data set [2] (308.1 K); 195.6 ± 15 mPa·s in data set [2] (318.1 K); 104.3 ± 7.3 mPa·s in data set [2] (328.1 K).
